{
  "source": "patent US20210038510A1",
  "about": "“FORMULATIONS OF KINASE INHIBITORS AND PROSTANOIDS” (PULMOKINE, INC., priority 2018, published 2021)",
  "origin": "cited, not measured here",
  "key": {"[1]": {"tested_on": "PDGFRβ isoform versus PDGFRα isoform"}, "[2]": {"tested_on": "rat monocrotaline model of PAH"}, "[3]": {"tested_on": "patients with advanced PAH"}},
  "data": [
    {"smiles": "Cc1ccc(NC(=O)c2ccc(CN3CCN(C)CC3)cc2)cc1Nc1nccc(-c2cccnc2)n1", "note": "[Imatinib, imatinib]", "values": [
      {"measurement": "Potency against the PDGFRβ isoform compared with the PDGFRα isoform", "setting": "[1]", "result": "less potent"},
      {"measurement": "Right ventricular systolic pressure (RVSP)", "setting": "[2]", "result": "decreases"},
      {"measurement": "Survival", "setting": "[2]", "result": "improves survival"},
      {"measurement": "Cardiopulmonary hemodynamics", "setting": "[3]", "result": "improves cardiopulmonary hemodynamics"}
    ]}
  ]
}
